In US20090130707A1, “Methods of reducing the inhibitory effect of a redox active metal ion on the enzymatic hydrolysis of cellulosic material” (priority 2007, published 2009):
“Also recorded” adds a separate entry of the source.

Assays:
[1] = target: T1, Aspergillus oryzae CEL3A beta-glucosidase (Aspergillus oryzae, UniProt Q2UUD6); test: Cellobiose hydrolysis by CEL3A beta-glucosidase; format: biochemical; conditions: 10 mM FeSO4; 2 g cellobiose and 1 mg enzyme per liter (FIG. 21)
T1 construct: made in house
T1 sequence (Q2UUD6 20-861): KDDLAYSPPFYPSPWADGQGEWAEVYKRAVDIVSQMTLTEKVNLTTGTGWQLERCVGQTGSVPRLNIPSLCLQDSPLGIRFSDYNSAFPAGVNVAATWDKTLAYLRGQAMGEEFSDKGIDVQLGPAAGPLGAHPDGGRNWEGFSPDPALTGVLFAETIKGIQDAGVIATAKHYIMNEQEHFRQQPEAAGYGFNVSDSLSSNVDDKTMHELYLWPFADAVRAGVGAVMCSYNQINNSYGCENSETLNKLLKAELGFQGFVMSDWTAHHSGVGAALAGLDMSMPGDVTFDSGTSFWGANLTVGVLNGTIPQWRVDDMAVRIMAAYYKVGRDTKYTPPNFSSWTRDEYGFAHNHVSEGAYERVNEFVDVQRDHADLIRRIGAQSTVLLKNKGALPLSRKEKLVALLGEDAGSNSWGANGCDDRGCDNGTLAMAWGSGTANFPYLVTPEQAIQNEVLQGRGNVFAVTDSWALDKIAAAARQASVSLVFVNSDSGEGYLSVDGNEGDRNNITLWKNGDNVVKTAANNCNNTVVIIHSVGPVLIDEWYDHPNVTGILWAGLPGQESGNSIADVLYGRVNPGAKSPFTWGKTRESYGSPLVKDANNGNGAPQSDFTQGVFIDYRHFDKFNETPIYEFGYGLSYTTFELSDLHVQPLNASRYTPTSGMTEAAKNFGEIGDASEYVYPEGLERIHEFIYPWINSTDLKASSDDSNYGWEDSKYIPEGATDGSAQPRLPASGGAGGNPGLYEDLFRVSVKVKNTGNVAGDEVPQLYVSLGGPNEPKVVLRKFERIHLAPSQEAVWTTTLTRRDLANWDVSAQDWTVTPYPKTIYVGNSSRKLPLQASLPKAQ
Experimental: The Fe(II) inhibition of Aspergillus oryzae CEL3A beta-glucosidase was measured similarly, except cellobiose replaced PASC. The initial rate vs Fe(II) concentration plots appeared as “mixed” type, whose complexity prevented extraction of Kis.

[2] = target: Trichoderma reesei Cel6A cellobiohydrolase II (Trichoderma reesei, UniProt P07987); conditions: 10 mM FeSO4; 2 g PASC and 40 mg enzyme per liter (FIG. 20B)
Trichoderma reesei Cel6A cellobiohydrolase II, sequence (P07987 25-471): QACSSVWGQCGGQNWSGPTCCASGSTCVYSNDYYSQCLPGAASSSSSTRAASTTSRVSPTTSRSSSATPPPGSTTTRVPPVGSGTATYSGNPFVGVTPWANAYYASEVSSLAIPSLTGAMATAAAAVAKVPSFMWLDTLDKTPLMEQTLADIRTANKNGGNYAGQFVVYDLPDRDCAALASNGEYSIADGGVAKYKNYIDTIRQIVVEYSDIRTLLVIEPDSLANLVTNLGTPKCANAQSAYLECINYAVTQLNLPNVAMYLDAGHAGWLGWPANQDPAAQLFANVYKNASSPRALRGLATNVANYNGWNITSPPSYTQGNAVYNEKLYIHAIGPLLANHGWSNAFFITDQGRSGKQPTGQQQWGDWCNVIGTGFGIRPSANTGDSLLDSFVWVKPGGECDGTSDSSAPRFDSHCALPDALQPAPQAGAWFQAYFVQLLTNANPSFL
Experimental: The inhibitory effect of ferrous ion was determined on Trichoderma reesei Cel7A cellobiohydrolase I, Trichoderma reesei Cel6A cellobiohydrolase II, Trichoderma reesei Cel7B endoglucanase I, and Trichoderma reesei Cel5A endoglucanase II using PASC as substrate.
A series of duplicate “mini-scale” hydrolysis reactions were performed according to the procedure described in Example 30, except that 10 mM FeSO4 and 2 g of PASC (dry weight) and 40 mg of enzyme per liter of 50 mM sodium acetate pH 5 were used.

[3] = target: T2, Trichoderma reesei Cel7A cellobiohydrolase I (Trichoderma reesei, UniProt P62694); test: PASC hydrolysis by Cel7A cellobiohydrolase I; format: biochemical; conditions: 10 mM FeSO4; 2 g PASC and 40 mg enzyme per liter (FIG. 20A)
T2 construct: made in house
T2 sequence (P62694 18-513): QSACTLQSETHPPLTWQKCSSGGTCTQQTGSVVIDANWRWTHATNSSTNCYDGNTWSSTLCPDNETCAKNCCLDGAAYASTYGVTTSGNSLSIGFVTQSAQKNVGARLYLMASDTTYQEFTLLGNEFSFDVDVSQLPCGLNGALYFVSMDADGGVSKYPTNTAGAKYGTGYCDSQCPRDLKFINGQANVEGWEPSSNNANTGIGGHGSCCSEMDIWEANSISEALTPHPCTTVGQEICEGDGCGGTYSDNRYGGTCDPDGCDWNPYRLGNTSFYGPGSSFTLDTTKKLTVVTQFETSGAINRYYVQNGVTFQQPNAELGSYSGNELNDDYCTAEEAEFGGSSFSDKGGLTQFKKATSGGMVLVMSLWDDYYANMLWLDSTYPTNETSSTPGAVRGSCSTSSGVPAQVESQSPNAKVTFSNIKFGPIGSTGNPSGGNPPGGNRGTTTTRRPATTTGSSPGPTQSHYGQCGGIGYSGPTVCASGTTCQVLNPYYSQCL

[4] = tested on: Cellulolytic Enzyme Composition #1; test: mini-scale PCS hydrolysis by Cellulolytic Enzyme Composition #1; format: biochemical, Trichoderma reesei; conditions: 10 mM FeSO4; 43 g PCS and 0.25 g enzyme per liter, pH 5, 50° C.
Experimental: The effect of various salts (FeSO4, FeCl2, NaCl, Na2SO4, MnSO4, MnCl2) was determined in the hydrolysis of PCS by Cellulolytic Enzyme Composition #2. The PCS hydrolysis was performed in duplicate in capped 1.7 ml EPPENDORF® tubes (“mini-scale”) containing 1 ml suspensions of 43.4 g of PCS (dry weight) per liter, 10 mM salts in 50 mM sodium acetate pH 5. Cellulolytic Enzyme Composition #2 was added at 0.25 g per liter. Reactions without the addition of the salt served as controls. The capped tubes were incubated at 50° C. in an INNOVA® 4080 incubator shaker (New Brunswick Scientific Co., Inc., Edison, N.J., USA) at 150 rpm.
(§1) Aliquots of the suspensions, sampled over time, were filtered by centrifugation using a 0.45 μm MULTISCREEN® HV membrane (Millipore, Billerica, Mass., USA) at 2000 rpm for 15 minutes using a SORVALL® RT7 centrifuge (Thermo Fisher Scientific, Waltham, Mass., USA). When not used immediately, the filtered sugary aliquots were frozen at −20° C. Sugar concentrations of the samples diluted in 0.005 M H2SO4 were measured after elution from a 4.6×250 mm AMINEX® HPX-87H column (Bio-Rad, Hercules, Calif., USA) by 0.005 M H2SO4 at a flow rate of 0.4 ml/minute at 65° C. with quantitation by integration of glucose and cellobiose using refractive index detection (CHEMSTATION®, AGILENT® 1100 HPLC, Agilent Technologies, Santa Clara, Calif., USA) calibrated with standards of glucose and cellobiose. The resultant equivalents were used to calculate the percentage of cellulose conversion for each reaction.
Example 30 was repeated with both Cellulolytic Enzyme Composition #1 and Cellulolytic Enzyme Composition #2. Soluble reducing sugars were measured by HPLC as described in Example 30. Reactions without the addition of FeSO4 served as controls.
The hydrolysis was performed in a series of duplicate “mini-scale” hydrolysis reactions according to the procedure described in Example 30.

[5] = tested on: Cellulolytic Enzyme Composition #2; test: mini-scale PCS hydrolysis by Cellulolytic Enzyme Composition #2; format: biochemical, Trichoderma reesei
Experimental: Corn stover was pretreated at the U.S. Department of Energy National Renewable Energy Laboratory (NREL), […], Colo., USA, using dilute sulfuric acid. The following conditions were used for the pretreatment: 1.4 wt % sulfuric acid at 195° C. for 4.5 minutes. According to limit digestion with excess cellulase enzymes, the water-insoluble solids in the pretreated corn stover (PCS) contained 59.5% cellulose. Prior to use, the PCS was washed with a large volume of deionized water until soluble acid and sugars were removed. The dry weight of the water-washed PCS was 19.16%.
The effect of various salts (FeSO4, FeCl2, NaCl, Na2SO4, MnSO4, MnCl2) was determined in the hydrolysis of PCS by Cellulolytic Enzyme Composition #2. […] Cellulolytic Enzyme Composition #2 was added at 0.25 g per liter. Reactions without the addition of the salt served as controls. The capped tubes were incubated at 50° C. in an INNOVA® 4080 incubator shaker (New Brunswick Scientific Co., Inc., Edison, N.J., USA) at 150 rpm.
as §1
The degree of cellulose conversion to glucose plus cellobiose (% conversion) was calculated using the following equation:
% Conversion=(glucose+cellobiose×1.053)(mg/ml)×100×162/cellulose(mg/ml)×180)=(glucose+cellobiose×1.053)(mg/ml)×100/(cellulose(mg/ml)×1.111)
In this equation the factor 1.111 reflects the weight gain in converting cellulose to glucose, and the factor 1.053 reflects the weight gain in converting cellobiose to glucose. Cellulose in PCS was determined by a limit digest of PCS to release glucose and cellobiose.

[6] = target: T3, Trichoderma reesei Cel5A endoglucanase II (Trichoderma reesei, UniProt P07982); test: PASC hydrolysis by Cel5A endoglucanase II; format: biochemical; conditions: 10 mM FeSO4; 2 g PASC and 40 mg enzyme per liter (FIG. 20D)
T3 construct: made in house; host or cells: Aspergillus oryzae JaL250 (transformant JaL250AlLo27)
T3 sequence (P07982 22-418): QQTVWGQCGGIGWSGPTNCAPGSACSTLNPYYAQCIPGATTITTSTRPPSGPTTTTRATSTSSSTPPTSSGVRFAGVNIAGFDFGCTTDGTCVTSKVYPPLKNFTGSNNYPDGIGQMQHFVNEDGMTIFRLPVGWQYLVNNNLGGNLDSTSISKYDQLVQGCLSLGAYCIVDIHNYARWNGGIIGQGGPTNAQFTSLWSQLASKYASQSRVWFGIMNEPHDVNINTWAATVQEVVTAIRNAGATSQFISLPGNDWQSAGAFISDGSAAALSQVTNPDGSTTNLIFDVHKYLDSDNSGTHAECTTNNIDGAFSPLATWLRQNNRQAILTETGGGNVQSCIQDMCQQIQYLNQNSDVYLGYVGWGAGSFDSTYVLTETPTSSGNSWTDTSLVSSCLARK

Substance: Ferrous sulfate [FeSO4]
- Effect on enzyme [1]: slightly inhibited
- Effect on enzyme [2]: significantly inhibited
- Effect on enzyme [3]: significantly inhibited
- Effect on PCS hydrolysis [4]: significantly inhibited
- Effect on PCS hydrolysis ([5]; 10 mM salt, 43.4 g PCS and 0.25 g enzyme per liter, 50 mM sodium acetate pH 5, 50° C.): significant inhibition; also recorded: significantly inhibited
- Effect on the cellulases ([5]; 0.1 and 1 mM): did not significantly affect
- Effect on enzyme [6]: significantly inhibited
